# How the values were obtained:
# [1] = biological target: T1, hKv7.2/7.3 (Homo sapiens, UniProt O43525+O43526); test: Kv7.2/7.3 Thallium Flux Assay; assay type: cell-based; parameters: key to Thallium Flux Kv7.2/7.3 Activity: 3-10 μM (*); 1-3 μM (**); <1 μM (***); NC stands for Not Calculable; settings: EC50 of Kv7.2/Kv7.3 activation, responses normalized to retigabine 30 μM
# T1 construct: host or cells: HEK cells, tetracycline-inducible expression
# Text: The Thallium Flux Assay is used as a surrogate indicator of potassium channel activity.
# The experimental protocol was adapted from the FluxOR™ II Green Potassium Ion Channel Assay User Guide (Pub. No. MAN0016084, Invitrogen). Conditions were optimized for the Kv7.2/7.3 cell line.
# Cell Line: The hKv7.2/7.3 cell line was obtained from Chantest (Cleveland, OH 44128) cat. #CT6147.
# Cell Culture: Kv7.2/7.3 cells were maintained in a media containing DMEM/F12; 50/50 (GIBCO cat. #11330), 10% Fetal Bovine Serum (FBS) (GIBCO cat. #26140), 100 units/mL Penicillin-Streptomycin (GIBCO cat. #15140), 0.005 mg/ml Blasticidin (SIGMA 15205), 0.5 mg/mL Geneticin (GIBCO cat. #10131), and 0.1 mg/mL Zeocin (GIBCO cat. #R25001). One day prior to experimentation, cells were plated in 96 well clear bottom plates (Corning cat. #353219) in a media without Blasticidin, Geneticin, or Zeocin. Channel expression was induced by adding tetracycline (Bioline cat. #BIO87030) at a final concentration of 10 ng/mL.
# Compound Plates: The test compound is diluted in a mixture of 0.1% DMSO/extracellular solution with an eight-point concentration range from 0.014 μM to 30 μM. Serial dilutions were made on a Biomek NXP (BECKMAN COULTER).
# Measurement and data analysis: A plate reader (Enspire, Perkin Elmer) is used to characterize the ion-channel modulating properties of novel compounds using an excitation wavelength of 475 nm and an emission wavelength of 530 nm. After a 15 sec baseline measurement, the stimulus buffer containing thallium and potassium is injected. A final endpoint measure is taken after 90 sec. Responses are normalized to positive control (retigabine, 30 μM max). Mean normalized responses at each concentration tested are fit to the standard Hill equation to generate an EC50 and maximal response.
# [2] = biological target: T1, hKv7.2/7.3; test: Kv7.2/7.3 Activation Assay, QPatch planar patch-clamp single concentration screen; assay type: cell-based; settings: increase in current over baseline, Kv7.2/Kv7.3 co-expressing HEK cells, compound concentration 3 μM, steady-state current at end of 2 s pulse to −30 mV
# In short: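 Tetracycline-induced HEK cells expressing hKv7.2/7.3, recorded 24 h post-induction by automated whole-cell patch clamp (−80 mV hold, 2 s step to −30 mV). Compound tested at 3 μM (0.1% DMSO); fold increase in steady-state current at end of the −30 mV step over baseline.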
smiles,measurement,setting,value
"CC(C)(C)CC(=O)Nc1nn2ccc(C#N)cc2c1C1CCC1 [Example 3, N-(5-cyano-3-cyclobutylpyrazolo[1,5-a]pyridin-2-yl)-3,3-dimethylbutanamide]",EC50,[1],< 1 µM
same,QPatch Kv7.2/7.3 Activity,[2],+ (2.0-3.99 (+))
"CC(C)(O)CC(=O)Nc1nn2ccc(C(F)(F)F)cc2c1-c1ccc(F)cc1 [Example 14, N-(3-(4-fluorophenyl)-5-(trifluoromethyl)pyrazolo [1,5-a]pyridin-2-yl)-3-hydroxy-3-methylbutanamide]",EC50,[1],< 1 µM
same,QPatch Kv7.2/7.3 Activity,[2],+ (2.0-3.99 (+))
"CC(C)(C)CC(=O)Nc1nn2ccc(C(C)(C)O)cc2c1C1CCC1 [Example 57, N-(3-cyclobutyl-5-(2-hydroxypropan-2-yl)pyrazolo[1,5-a]pyridin-2-yl)-3,3-dimethylbutanamide]",EC50,[1],< 1 µM
same,QPatch Kv7.2/7.3 Activity,[2],++ (4.0-5.99 (++))
"CCC(O)(CC)CC(=O)Nc1nn2ccc(C(F)(F)F)cc2c1-c1ccc(F)cc1 [Example 77, 3-ethyl-N-(3-(4-fluorophenyl)-5-(trifluoromethyl)pyrazolo [1,5-a]pyridin-2-yl)-3-hydroxypentanamide]",QPatch Kv7.2/7.3 Activity,[2],+ (2.0-3.99 (+))
"C[C@](O)(CC(=O)Nc1nn2c(C(F)(F)F)cccc2c1-c1ccc(F)cc1)c1ccccc1 [Example 78, (S)-N-(3-(4-fluorophenyl)-7-(trifluoromethyl)pyrazolo [1,5-a]pyridin-2-yl)-3-hydroxy-3-phenylbutanamide]",QPatch Kv7.2/7.3 Activity,[2],+ (2.0-3.99 (+))
"CC(C)(C)CC(=O)Nc1nn2ccc(C(C)(C)O)cc2c1-c1ccc(F)cc1 [Example 79, N-(3-(4-fluorophenyl)-5-(2-hydroxypropan-2-yl)pyrazolo[1,5-a]pyridin-2-yl)-3,3-dimethylbutanamide]",QPatch Kv7.2/7.3 Activity,[2],++ (4.0-5.99 (++))
"CC(C)(C)CC(=O)Nc1nn2ccc(C(F)(F)F)cc2c1C#N [Example 80, N-(3-cyano-5-(trifluoromethyl)pyrazolo [1,5-a]pyridin-2-yl)-3,3-dimethylbutanamide]",QPatch Kv7.2/7.3 Activity,[2],− (<1.2-fold (−))
"CC(C)(C)CC(=O)Nc1nn2c(Cl)cc(Cl)cc2c1-c1ccc(F)cc1 [Example 81, N-(5,7-dichloro-3-(4-fluorophenyl)pyrazolo [1,5-a]pyridin-2-yl)-3,3-dimethylbutanamide]",QPatch Kv7.2/7.3 Activity,[2],++ (4.0-5.99 (++))
"CC(C)(C)CC(=O)Nc1nn2ccc(Cl)cc2c1-c1ccc(F)cc1 [Example 82, N-(5-chloro-3-(4-fluorophenyl)pyrazolo [1,5-a]pyridin-2-yl)-3,3-dimethylbutanamide]",QPatch Kv7.2/7.3 Activity,[2],+++ (>6-fold (+++))
"O=C(CC(O)(CF)CF)Nc1nn2ccc(C(F)(F)F)cc2c1C1CCC1 [Example 83, N-(3-cyclobutyl-5-(trifluoromethyl)pyrazolo[1,5-a]pyridin-2-yl)-4-fluoro-3-(fluoromethyl)-3-hydroxybutanamide]",QPatch Kv7.2/7.3 Activity,[2],+ (2.0-3.99 (+))
"CC(C)(C)CC(=O)NNc1nn2ccc(C(F)(F)F)cc2c1-c1ccc(F)cc1 [Example 84, N′-(3-(4-fluorophenyl)-5-(trifluoromethyl)pyrazolo [1,5-a]pyridin-2-yl)-3,3-dimethylbutanehydrazide]",QPatch Kv7.2/7.3 Activity,[2],+/− (1.2-1.99-fold (+/−))
"CC(C)(O)CC(=O)NNc1nn2ccc(C(F)(F)F)cc2c1-c1ccc(F)cc1 [Example 85, N′-(3-(4-fluorophenyl)-5-(trifluoromethyl)pyrazolo [1,5-a]pyridin-2-yl)-3-hydroxy-3-methylbutanehydrazide]",QPatch Kv7.2/7.3 Activity,[2],− (<1.2-fold (−))
"CC(C)(C)CC(=O)Nc1nn2ccc(C(F)(F)F)cc2c1C(C)(C)O [Example 86, N-(3-(2-hydroxypropan-2-yl)-5-(trifluoromethyl)pyrazolo[1,5-a]pyridin-2-yl)-3,3-dimethylbutanamide]",QPatch Kv7.2/7.3 Activity,[2],+/− (1.2-1.99-fold (+/−))
"C[C@@](O)(CC(=O)Nc1nn2ccc(C(F)(F)F)cc2c1C1CCC1)C1CC1 [Example 87, (R)-N-(3-cyclobutyl-5-(trifluoromethyl)pyrazolo[1,5-a]pyridin-2-yl)-3-cyclopropyl-3-hydroxybutanamide]",QPatch Kv7.2/7.3 Activity,[2],+ (2.0-3.99 (+))
"CC(C)(C)CC(=O)Nc1nn2ccc(C#N)cc2c1C(C)(C)C [Example 88, N-(3-(tert-butyl)-5-cyanopyrazolo[1,5-a]pyridin-2-yl)-3,3-dimethylbutanamide]",Thallium Flux Kv7.2/7.3 Activity,[1],NC
"CC(C)(C)c1c(NC(=O)CC(C)(C)C(F)(F)F)nn2ccc(C#N)cc12 [Example 89, N-(3-(tert-butyl)-5-cyanopyrazolo[1,5-a]pyridin-2-yl)-4,4,4-trifluoro-3,3-dimethylbutanamide]",Thallium Flux Kv7.2/7.3 Activity,[1],NC
"CC(C)(C)c1c(NC(=O)C[C@@H]2CC(F)(F)C2(F)F)nn2ccc(C#N)cc12 [Example 90, (R)-N-(3-(tert-butyl)-5-cyanopyrazolo[1,5-a]pyridin-2-yl)-2-(2,2,3,3-tetrafluorocyclobutyl) acetamide]",Thallium Flux Kv7.2/7.3 Activity,[1],NC
"CC(C)(C)CC(=O)Nc1nn2ccccc2c1C#N [Example 91, N-(3-cyanopyrazolo [1,5-a]pyridin-2-yl)-3,3-dimethylbutanamide]",Thallium Flux Kv7.2/7.3 Activity,[1],NC
"CCOC(=O)c1c(NC(=O)CC(C)(C)C)nn2ccccc12 [Example 92, ethyl 2-(3,3-dimethylbutanamido) pyrazolo[1,5-a]pyridine-3-carboxylate]",Thallium Flux Kv7.2/7.3 Activity,[1],NC
"CC(C)(C)CC(=O)Nc1nn2ccccc2c1C(C)(C)O [Example 93, N-(3-(2-hydroxypropan-2-yl)pyrazolo[1,5-a]pyridin-2-yl)-3,3-dimethylbutanamide]",EC50,[1],< 1 µM
"N#Cc1ccn2nc(NC(=O)C[C@H]3CC(F)(F)C3(F)F)c(C3CCC3)c2c1 [Example 94, (S)-N-(5-cyano-3-cyclobutylpyrazolo[1,5-a]pyridin-2-yl)-2-(2,2,3,3-tetrafluorocyclobutyl) acetamide]",EC50,[1],< 1 µM
"CC(C)(O)c1ccn2nc(NC(=O)C[C@H]3CC(F)(F)C3(F)F)c(C3CCC3)c2c1 [Example 95, (S)-N-(3-cyclobutyl-5-(2-hydroxypropan-2-yl)pyrazolo [1,5-a]pyridin-2-yl)-2-(2,2,3,3-tetrafluorocyclobutyl) acetamide]",EC50,[1],< 1 µM
same,QPatch Kv7.2/7.3 Activity,[2],+ (2.0-3.99 (+))
"N#Cc1ccn2nc(NC(=O)C[C@@H]3CC(F)(F)C3(F)F)c(C3CCC3)c2c1 [Example 96, (R)-N-(5-cyano-3-cyclobutylpyrazolo[1,5-a]pyridin-2-yl)-2-(2,2,3,3-tetrafluorocyclobutyl) acetamide]",Thallium Flux Kv7.2/7.3 Activity,[1],NC
"N#Cc1ccn2nc(NC(=O)CC3(C(F)(F)F)CC3)c(C3CCC3)c2c1 [Example 97, N-(5-cyano-3-cyclobutylpyrazolo[1,5-a]pyridin-2-yl)-2-(1-(trifluoromethyl)cyclopropyl)acetamide]",Thallium Flux Kv7.2/7.3 Activity,[1],NC
"CC(C)(O)c1ccn2nc(NC(=O)C[C@@H]3CC(F)(F)C3(F)F)c(C3CCC3)c2c1 [Example 98, (R)-N-(3-cyclobutyl-5-(2-hydroxypropan-2-yl)pyrazolo[1,5-a]pyridin-2-yl)-2-(2,2,3,3-tetrafluorocyclobutyl) acetamide]",EC50,[1],< 1 µM
